Measured values reported in US20120101147A1, “INHIBITION OF HDAC2 TO PROMOTE MEMORY” (The General Hospital Corporation d/b/a Massachusetts …, priority 2008, published 2012).

How the values were obtained:
[1] = system: tetra-acetylated H2B; assay: Western blot of cortex after acute treatment: tetra-acetylated H2B; format: in vivo, mice
Procedure: (§1) The experimental protocol for acute treatment with BRD-6929 and the corresponding effects on histone acetylation in brain specific regions of adult male C57BL/6J mice is shown in FIG. 18. Crude Protein Lysis Protocol for western blot analysis of specific brain sections.
(§2) a. On ice, thaw frozen tissue and immediately homogenize carefully in 250 uL of ice-cold Suspension Buffer.
(§3) b. As soon as possible, add an equal volume of 2×SDS gel-loading buffer, pipetting up and down to mix.
(§4) 2. Place the sample at 95° C. for 5 min.
(§5) 3. Shear viscous chromosomal DNA by smoothly passaging through 23-25 gauge hypodermic needle (2-3×) or by sonicating briefly (Al used the needle method and it worked fine). Avoid foaming/bubbles.
(§6) 4. Centrifuge the sample at 10,000 g for 10 min at room temperature, transferring supernatant to fresh tube.

[2] = system: H4K12 acetylation; assay: Immunofluorescence: H4K12 acetylation in primary cultures (striatum); format: cell-based, mouse; conditions: 10 uM, 6 h
Procedure: (§7) 1) Compounds were pin transferred from 384-well plates (Abgene) using a 185 nl pin tool using a no touch bottom protocol.
(§8) 1) Media was aspirated using a plate washer (Tecan) protocol that leaves ˜5 ul residual volume and without touching the bottom of plates); or alternatively, wells were gently aspirated to remove media with 12-channel aspirator wand.
(§9) 2) A multichannel pipet or use liquid handling system (e.g. Combi, standard tubing; slow speed) was used to add 75 ul formaldehyde (4% in PBS) and wells incubated 10 min at room temperature.
(§10) 3) Formaldehyde was aspirated and cells rinsed 3 times with 100 ul PBS;
(§11) 4) PBS was aspirated and 100 ul blocking/permeablization buffer (0.1% Triton-X100, 2% BSA, in PBS) added and wells incubate 1 hour at room temperature.
(§12) 5) Blocking buffer was aspirated and 50 ul primary antibody diluted 1:500 in blocking buffer was added and wells incubated overnight at 4 degrees.
(§13) 1) Primary antibody was aspirated and wells rinsed 3 times with 100 ul blocking buffer
(§14) 2) 50 ul of secondary antibody diluted 1:500 and with Hoeschst (1:1000 from 10 mg/mL (16 mM) stock) added and wells incubated 1.5 hours at room temperature covered in foil to prevent photobleaching.
(§15) 3) Wells were rinsed 3 times with 100 ul PBS, and a 100 uls of PBS added and the plates, sealed
(§16) 4) Plates were then read on Acumen/IX Micro

[3] = Pharmacokinetics in plasma and brain after single i.p. dose; format: in vivo; conditions: single 45 mg/kg i.p.; C-57 mice
Procedure: FIG. 17 is the concentration-time curve of BRD-6929 in plasma and brain following single 45 mg/kg i.p. dose in mice.
FIG. 17 represents a summary of the pharmacokinetic data after a single dose of 45 mg/kg BRD-6929 administered systemically via intraperitoneal injection. The concentration time curves for BRD-6929 in the plasma and brain of C-57 mice from 5 min to 24 h are shown.

[4] = system: tetra-acetylated H4; assay: Western blot of tetra-acetylated H4 in primary striatal cells; format: cell-based, mouse; conditions: relative to DMSO controls
Procedure: (§17) Four compounds were tested including CI-994 (BRD-3696) and SAHA. […] BRD-6929 and BRD-5298 treatment results in a 2-5 fold increase in both marks at 1 and 10 uM.

[5] = system: tetra-acetylated H2B; assay: Western blot of tetra-acetylated H2B in primary striatal cells; format: cell-based, mouse; conditions: relative to DMSO controls
Procedure: as §17

[6] = system: mice; assay: Context-dependent fear conditioning memory test; format: in vivo, mouse; conditions: C57/BL6 WT mice; 45 mg/kg every day for 10 days; foot shock 0.8 mA
Procedure: Fear conditioning tests Context-dependent fear conditioning. Training consists of a 3 min exposure of mice to the conditioning box (context) followed by a foot shock (2 sec, 0.5/0.8/1.0 mA, constant current). The memory test was performed 24 hr later by re-exposing the mice for 3 min into the conditioning context. Freezing, defined as a lack of movement except for heart beat and respiration associated with a crouching posture, was recorded every 10 sec by two trained observers (one was unaware of the experimental conditions) during 3 min (a total of 18 sampling intervals). The number of observations indicating freezing obtained as a mean from both observers was expressed as a percentage of the total number of observations.
Chemical administration Suberoylanilide hydroxamic acid (SAHA) was synthesized as described previously in WO 93/07148 PTC/US92/08454. Sodium butyrate was purchased from Sigma (cat.B5887). SAHA and WT-161 were dissolved in DMSO as stock solutions and diluted in saline just before injection. Sodium butyrate was prepared in saline. Mice received intraperitoneal injection daily with either SAHA or saline for 10 days or 21 days.
C57/BL6 WT mice were injected with vehicle or BRD-6929 for 10 days. On day 11, mice were trained in contextual fear conditioning paradigm (Training consisted of a 3 min exposure of mice to the conditioning box (context, TSE) followed by a foot shock (2 sec, 0.8 mA, constant current). One hour after training, mice were injected with BRD-6929 or vehicle. On day 12, mice were returned to the training box and the freezing behavior were monitored and recorded.

[7] = target: T1, HDAC8 (Homo sapiens, UniProt Q9BY41); assay: In vitro enzymatic inhibition assay against HDAC isoforms; format: biochemical
T1 sequence (Q9BY41 1-377): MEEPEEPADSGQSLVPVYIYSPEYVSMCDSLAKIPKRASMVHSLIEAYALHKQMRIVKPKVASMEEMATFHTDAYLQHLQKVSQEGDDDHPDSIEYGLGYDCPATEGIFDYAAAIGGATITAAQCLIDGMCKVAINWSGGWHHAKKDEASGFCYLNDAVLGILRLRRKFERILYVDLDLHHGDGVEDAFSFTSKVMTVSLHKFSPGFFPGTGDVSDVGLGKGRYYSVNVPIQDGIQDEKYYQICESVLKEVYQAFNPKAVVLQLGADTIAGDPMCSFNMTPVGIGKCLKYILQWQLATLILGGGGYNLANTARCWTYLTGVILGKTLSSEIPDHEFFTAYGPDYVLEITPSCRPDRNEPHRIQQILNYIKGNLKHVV
Procedure: (§18) The enzymatic inhibitory activity of multiple HDAC inhibitors was assayed against several of the known HDAC isoforms and is shown in FIG. 8. SAHA was included as a reference mixed class I-class II inhibitor. […] All of the BRD numbered compounds are derived from the ortho-anilide class of compounds. Not all compounds from this class are expected to bind the class II HDACs.

[8] = system: Class II HDAC enzymes; assay: as above; format: biochemical
Procedure: as §18

[9] = system: primary neuronal cultures; assay: Immunofluorescence: overall cell number in primary neuronal cultures; format: cell-based, mouse; conditions: 1 and 10 uM, 6 h
Procedure: as §7, §8, §9, §10, §11, §12, §13, §14, §15, §16

[10] = system: HDAC1,2 vs. HDAC3; assay: Selectivity for HDAC1,2 vs. HDAC3; format: biochemical
Source text: All of the BRD numbered compounds are derived from the ortho-anilide class of compounds.
Two sets of data with 3 independent samples/set are presented. Histograms representing the quantification of westerns are also shown.

[11] = system: H4K12 acetylation in primary striatal cells; assay: Western blot of H4K12 acetylation in primary striatal cells; format: cell-based, mouse; conditions: 1 and 10 uM; relative to DMSO
Source text: A. Western blots of primary striatal cells isolated from mouse brain that have been treated with HDAC inhibitors. Two sets of data with 3 independent samples/set. B. Histograms represent the quantification of westerns shown in panel A.
Two sets of data with 3 independent samples/set are presented. Histograms representing the quantification of westerns are also shown. Relative to DMSO controls, BRD-6929 has a significant effect on the acetylation levels of histone locus H4K12. BRD-6929 treatment results in a 5-10 fold increase at 1 and 10 uM. BRD-6929 is an HDAC 1,2 selective compound, and has 200× selectivity for HDAC1,2 vs. HDAC3. […] In this case the data was compared to controls: SAHA and BRD-3696 (CI-994). An HDAC1,2 selective compound is as effective at increasing acetylation as an HDAC1,2,3 inhibitor and a pan inhibitor (i.e. SAHA). Inhibiting HDAC1,2 is sufficient to effect increased acetylation at this histone locus.

[12] = system: tetra-acetylated H2B; assay: Western blot of whole brain after chronic administration: tetra-acetylated H2B; format: in vivo, mice; conditions: every day for 10 days
[13] = system: H2BK5; assay: Western blot of cortex after acute treatment: H2BK5 acetylation; format: in vivo, mice; conditions: cortex after 1 hour
Procedure: as §1, §2, §3, §4, §5, §6

[14] = system: H2B acetylation; assay: Immunofluorescence: H2B acetylation in primary neuronal cell cultures; format: cell-based, mouse; conditions: 1 and 10 uM, 6 h
Procedure: as §7, §8, §9, §10, §11, §12, §13, §14, §15, §16

[15] = system: H4K12 acetylation in HEK293 cells; assay: Western blot of H4K12 acetylation in whole HEK293 cells; format: cell-based; conditions: 10 uM, 6 hour
Procedure: Series of compounds incubated with whole HEK293 cells at 10 uM for a 6 hour time period. Western blot showing increased acetylation levels over DMSO controls using anti-acetyl H4K12 antibodies and horseradish peroxidase conjugated secondary antibody along with a luminol-based substrate.
Relative to the DMSO control, multiple selectivity profiles are effective in increasing H4K12 acetylation levels. […] BRD-4097 is the negative control.
Standard western blotting methods were used to measure the effects of HDAC inhibitors on histone acetylation marks in […]. Series of compounds were incubated with whole HEK293 cells at 10 uM for a 6 hour time period. […] Quantification of the raw western data (FIG. 10) established that relative to the DMSO control, multiple selectivity profiles are effective in increasing H4K12 acetylation levels, and that HDAC 1,2 and HDAC 1,2,3 selective inhibitors have robust HDAC activity in whole cells on a specific histone loci (H4K12).

CC(=O)Nc1ccc(C(=O)Nc2cc(-c3cccs3)ccc2N)cc1 [BRD-6929, 4-acetamido-N-(2-amino-5-(thiophen-2-yl)phenyl)benzamide]
increase in H2B (tetra) histone acetylation in cortex ([1]; acute treatment, normalized to histone H3): 1.5-2 fold | levels of tetra-acetylated H2B in the cortex ([1]; single systemic dose, adult male C57BL/6J mice): significant increase | H4K12 acetylation [2]: increase | blood-brain barrier penetration [3]: crosses the blood-brain barrier | brain AUC [3]: 3.9 µM | brain Cmax [3]: 0.83 µM | tetra-acetylated H4 [4]: significantly increased | tetra-acetylated H2B [5]: trend toward increasing | memory in contextual fear conditioning paradigm (% time freezing) [6]: improved | inhibition of HDAC8 [7]: does not inhibit | inhibition of Class II HDAC enzymes [8]: does not inhibit | overall cell number ([9]; primary cultures (cortex and striatum)): does not cause an increase or decrease | overall cell number ([9]; primary neuronal cell cultures): do not cause an increase or decrease | selectivity for HDAC1,2 vs. HDAC3 [10]: 200 × | increase in acetylation of histone locus H4K12 [11]: 5-10 fold | tetra-acetylated H2B relative to the vehicle control [12]: increase | increase in acetylation levels for H2BK5 [13]: 1.5-2 fold | increase in H2B tetra-acetylation ([14]; primary cultures (striatum)): 2-3 fold | H2B acetylation ([14]; primary neuronal cell cultures): significant increase

Nc1ccc(-c2cccs2)cc1NC(=O)c1ccc(/C=C/C(=O)NCCc2ccccn2)cc1 [BRD-9853, (E)-N-(2-amino-5-(thiophen-2-yl)phenyl)-4-(3-oxo-3-(2-(pyridin-2-yl)ethylamino)prop-1-enyl)benzamide]
H4K12 acetylation levels relative to DMSO control [15]: minimal activity
